Experimental data reported in patent publication US20230321171A1, “ANTI-COCCIDIAL COMPOSITION COMPRISING MANGOSTEEN AND USES THEREOF” (CJ CHEILJEDANG CORPORATION, priority 2020, published 2023).

Experiments:
[1] = tested on: RAW264.7(Mouse macrophage cell); experiment: Cytotoxicity, MTS analysis, RAW264.7; settings: 3.1~500 ppm/well, 14 hours + 2 hours MTS, vs 5% DMSO treatment group
Text: (§1) In the present example, using MTS analysis method (3-(4,5-[…])-5-(3-carboxymethoxyphenyl)-2-(4-sulfophenyl)-2H-tetrazolium, promega, USA), an effect on survival of cells of the mangosteen extract was investigated.
(§2) The cell lines utilized in cytotoxicity evaluation were (1) MDBK(Madin-Darby Bovine Kidney Epithelial Cells) and (2) RAW264.7(Mouse macrophage cell), and all of them were purchased from ATCC and used.
(§3) Each cell was aliquoted at a concentration of 1×10^5 cell/well in a 96-well cell culture plate, and cultured at 37° C. for 24 hours, and then each material (mangosteen extract, xanthone, alpha-mangostin and epicatechin) was treated by concentration (3.1˜500 ppm/well) and cultured at a temperature of 37° C.

[2] = tested on: Eimeria tenella; experiment: In vivo anticoccidial efficacy evaluation in broilers challenge-inoculated with Eimeria tenella; design: species or system Ross broilers
Procedure: An in vivo anticoccidial efficacy evaluation test was performed in an animal experiment facility in Gyeongsangnam-do, South Korea. One-day-old female Ross broilers were individually weighed and randomly divided into groups to use in an experiment. Matters and conditions for experimental design were described in Table 2.
(§4) A breeding farm was managed according to the Korean poultry breeding management guidelines. Cages and the breeding farm were cleaned and disinfected before starting the test. The temperature of […] and the humidity of 40 to 50% of the breeding farm were maintained, and it was continuously monitored.
(§5) For the feed, Korea Feed Al-choi product was used, and each material (salinomycin (Cheil Bio Cheilsalino-60 product), xanthone (Sigma Aldrich X600 product), and the mangosteen extract prepared in Example 1-2 above) was added to the feed, respectively, at a concentration described in Table 3 below to be self-mixed. Antibiotics and supplements were not used in general feed and mixed feed, and no anticoccidial agent other than each material was added. Broilers were fed ad libitum throughout the experiment period. After putting 20 1-day-age broilers in cages randomly placed for each of the control group or test group and breeding, general feed was fed for 7 days, and then the mixed feed prepared above was ingested by dividing by control group or test group.
The feed formulation administered to the control group (negative control group or positive control group) and test group and whether coccidiosis was induced by Eimeria tenella were described in Table 3 below. 20 1-day-old broilers were put in a cage randomly arranged for each test group, and after 7 days of feeding the general feed, the formulated feed as described in Table 3 was divided into each test group and ingested.
14-day-old broilers were orally inoculated with 10,000 oocysts (90% sporulated Eimeria tenella oocysts) per individual to induce coccidiosis.
The anticoccidial efficacy by test group designed in Example 1-3 above was shown as an anticoccidial index (ACI), and the anticoccidial index was calculated by Equation 2 below. The ACI score is out of 200 points, and the higher the ACI score, the more excellent the anticoccidial ability, and when it is 120 points or more to less than 140 points, it is determined that it is effective as an anticoccidial material, and when it is 140 points or more to less than 160 points, it is determined that it is excellent as an anticoccidial material, and when it is 160 points or more, it is determined that the anticoccidial effect is very excellent. (Luis Miguel De Pablos et al., Anticoccidial activity of maslinic acid against infection with Eimeria tenella in chickens, Parasitol Res, 2010)
Anticoccidial index (ACI)=(survival rate after challenge inoculation (%))+(daily weight gain compared to negative control group (RWG, %))−(lesion score×10)−(fecal oocyst excretion amount index) (Equation 2)
1) Survival rate: the number of dead individuals was recorded daily, and post mortem autopsy was performed to determine a cause of mortality, and the number of individuals who died due to causes other than coccidiosis was excluded. The survival rate (%) up to the 8th day after challenge inoculation was used for anticoccidial index calculation.
2) Daily weight gain: body weight was measured for each cage before challenge inoculation with a protozoan into an individual and at the 7th day after challenge inoculation, and the difference was divided by the number of days to calculate the daily weight gain (ADG, g/d). ‘Daily weight gain compared to the negative control group (RWG, %)’which was calculated by dividing the daily weight gain (ADG, average daily gain; g/d) of each experimental group by the weight gain (ADG, g/d) of the non-infected negative control group and multiplying by 100 was used for anticoccidial index calculation. […]

[3] = tested on: MDBK(Madin-Darby Bovine Kidney Epithelial Cells); experiment: Cytotoxicity, MTS analysis, MDBK; settings: 3.1~500 ppm/well, 14 hours + 2 hours MTS, vs 5% DMSO treatment group
Text: as §1, §2, §3

[4] = Broiler growth effect (daily weight gain) due to intake in feed; assay type: in vivo, Ross broilers; settings: for End body weight: non-infected broilers
Procedure: An efficacy evaluation test was performed in an animal experiment facility in Gyeongsangnam-do, South Korea. One-day-old female Ross broilers were individually weighed and randomly divided into groups to use in an experiment. Matters and conditions for experimental design were described in Table 16.
as §4
as §5, with “A1-choi” for “Al-choi”, “17” for “3”, “group. The feed formulation administered to the control group (negative control group or positive control group) and test group was described in Table 17 below.” for “group.”
The body weight before feeding and on the 7th day after feeding the feed of Table 16 above into individuals was measured, and the difference was divided by the number of days to calculate the daily weight gain (ADG, g/d), and the result was shown in Table 18. For comparison between 6 treatment groups, Duncan post-test multiple comparison method was used, and statistical significance was verified using a SAS statistical program, and the result was shown in Table 18.

[5] = formulated feed 125 ppm for 7 days
[6] = formulated feed 250 ppm for 7 days

## O=c1c2ccccc2oc2ccccc12 [Xanthone, xanthone]
[1]
  Minimum concentrataion of cytotoxicity at which cells of 50% or more survive (ppm): ≥62.5 ppm
[2]; formulated feed 62.5 ppm from day 7, female Ross broilers
  Intermediate body weight (14-day-old, before challenge inoculation): 470.9
[2]; formulated feed 62.5 ppm, 8th day after challenge inoculation, scale of 0-4
  Appendix lesion score: 2.4
[2]; formulated feed 62.5 ppm, 10,000 E. tenella oocysts oral at 14 days
  End body weight (21-day-old, on the 7th day of challenge inoculation): 887.0
[2]; formulated feed 62.5 ppm, E. tenella infected broilers
  Day 14~Day 21 ADG (daily weight gain): 56.42 g/day
[2]; formulated feed 62.5 ppm, Equation 2, out of 200 points
  Anticoccidial index (ACI): 122
[2]; formulated feed 62.5 ppm, feces of 6~8th day of challenge inoculation, McMaster chamber
  Oocyst excretion amount/gram: 1.80E+08 /gram
[2]; formulated feed 62.5 ppm, relative to non-infected negative control group
  RWG (daily weight gain compared to the negative control group): 85%
[3]
  Minimum concentrataion of cytotoxicity at which cells of 50% or more survive (ppm): ≥62.5 ppm
[4]; Table 18, Duncan p < 0.05, mangosteen extract also vs positive control and xanthone groups
  Daily weight gain compared to the negative control group, in words: rather reduced
[4]; [5]
  Daily weight gain (ADG): 43.86 g/day
  End-initial body weight (7 days, g): 307 g
  End body weight: 509 g
[4]; [6]
  Daily weight gain (ADG): 40.57 g/day
  End-initial body weight (7 days, g): 284 g
  End body weight: 485 g
